Test results: ChEMBL document CHEMBL1201862, “PubChem BioAssay data set” (2004)
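Results reflect a 48-hour exposure of cells in 96-well plates to compound at five concentrations. At the GI50, growth is halved.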 Active and inactive are the calls of the source. No stated cut-off is given here; in the data, active = GI50 up to about 1.1 µM and inactive = higher.

Experiments:
Assay in all cases: NCI anticancer screen, dose series, 48 h
RPMI-8226 = test system: RPMI-8226
EKVX = test system: EKVX
M14 = test system: M14
OVCAR-3 = test system: OVCAR-3
SK-MEL-2 = test system: SK-MEL-2
UO-31 = test system: UO-31
SF-268 = test system: SF-268
SK-MEL-5 = test system: SK-MEL-5
NCI-H460 = test system: NCI-H460
MDA-MB-435 = test system: MDA-MB-435
HCT-116 = test system: HCT-116
MOLT-4 = test system: MOLT-4
ACHN = test system: ACHN
UACC-257 = test system: UACC-257
SNB-19 = test system: SNB-19
OVCAR-4 = test system: OVCAR-4
SF-539 = test system: SF-539
PC-3 = test system: PC-3
SR = test system: SR
Malme-3M = test system: Malme-3M
SF-295 = test system: SF-295
DU-145 = test system: DU-145
A549 = test system: A549
RXF 393 = test system: RXF 393
OVCAR-8 = test system: OVCAR-8
Hs-578T = test system: Hs-578T
CAKI-1 = test system: CAKI-1
HT-29 = test system: HT-29
SW-620 = test system: SW-620
A498 = test system: A498
SNB-75 = test system: SNB-75
786-0 = test system: 786-0
MDA-N = test system: MDA-N
COLO 205 = test system: COLO 205
HOP-92 = test system: HOP-92
KM12 = test system: KM12
HOP-62 = test system: HOP-62
SK-MEL-28 = test system: SK-MEL-28
SN12C = test system: SN12C
K562 = test system: K562
OVCAR-5 = test system: OVCAR-5
TK-10 = test system: TK-10
U-251 = test system: U-251
IGROV-1 = test system: IGROV-1
CCRF-CEM = test system: CCRF-CEM
LOX IMVI = test system: LOX IMVI
NCI-H23 = test system: NCI-H23
NCI-H226 = test system: NCI-H226
MCF7 = test system: MCF7
BT-549 = test system: BT-549
HCC 2998 = test system: HCC 2998
NCI-H522 = test system: NCI-H522
HL-60 = test system: HL-60
MDA-MB-231 = test system: MDA-MB-231
HCT-15 = test system: HCT-15
NCI/ADR-RES = test system: NCI/ADR-RES
UACC-62 = test system: UACC-62
SK-OV-3 = test system: SK-OV-3
T47D = test system: T47D

Measured: GI50

C[C@@H](C[C@@H](O)[C@H](O)C(C)(C)O)[C@H]1CC=C2[C@]3(C)[C@H](O)C[C@H]4C(C)(C)[C@H](O)CC[C@]4(C)[C@H]3CC[C@@]21C
inactive: RPMI-8226 13.9 µM | EKVX 12.3 µM | M14 15.1 µM | OVCAR-3 13.3 µM | SK-MEL-2 14 µM | UO-31 15.4 µM | SF-268 13.4 µM | SK-MEL-5 14.2 µM | NCI-H460 15.8 µM | MDA-MB-435 16.4 µM | HCT-116 16.1 µM | MOLT-4 11.1 µM | ACHN 14.3 µM | UACC-257 16.1 µM | SNB-19 16 µM | OVCAR-4 14.4 µM | SF-539 18.1 µM | PC-3 14.3 µM | SR 21.9 µM | Malme-3M 14.3 µM | SF-295 15 µM | DU-145 16.9 µM | A549 12.7 µM | RXF 393 17 µM | OVCAR-8 16.1 µM | Hs-578T 22.5 µM | CAKI-1 16.4 µM | HT-29 13.4 µM | SW-620 17.3 µM | A498 15.2 µM | SNB-75 17.6 µM | 786-0 15 µM | MDA-N 15.6 µM | COLO 205 13.7 µM | HOP-92 13.9 µM | KM12 15.7 µM | HOP-62 15 µM | SK-MEL-28 14.4 µM | SN12C 15.7 µM | K562 15.7 µM | OVCAR-5 19.2 µM | TK-10 18 µM | U-251 16.7 µM | IGROV-1 16.3 µM | CCRF-CEM 18 µM | LOX IMVI 15.8 µM | NCI-H23 17.6 µM | NCI-H226 20.7 µM | MCF7 17.2 µM | BT-549 17.1 µM | HCC 2998 17.3 µM | NCI-H522 14 µM | HL-60 14.2 µM | MDA-MB-231 13.8 µM | NCI/ADR-RES 13.8 µM
14.7 µM: HCT-15

Cc1cc(NC(=O)C(=O)Cc2cnc3ccccc3n2)c(S(=O)(=O)O)cc1Cl
inactive: RPMI-8226 > 100 µM | EKVX > 100 µM | M14 > 100 µM | UACC-62 > 100 µM | OVCAR-3 > 100 µM | SK-MEL-2 > 100 µM | UO-31 > 100 µM | SK-OV-3 > 100 µM | SF-268 > 100 µM | SK-MEL-5 > 100 µM | NCI-H460 > 100 µM | MDA-MB-435 > 100 µM | HCT-116 > 100 µM | MOLT-4 > 100 µM | ACHN > 100 µM | UACC-257 > 100 µM | SNB-19 > 100 µM | OVCAR-4 > 100 µM | SF-539 > 100 µM | PC-3 > 100 µM | Malme-3M > 100 µM | SF-295 > 100 µM | DU-145 > 100 µM | A549 > 100 µM | OVCAR-8 > 100 µM | Hs-578T > 100 µM | CAKI-1 > 100 µM | HT-29 > 100 µM | SW-620 > 100 µM | A498 > 100 µM | SNB-75 > 100 µM | 786-0 > 100 µM | COLO 205 > 100 µM | HOP-92 > 100 µM | KM12 > 100 µM | SK-MEL-28 > 100 µM | SN12C > 100 µM | K562 > 100 µM | OVCAR-5 > 100 µM | TK-10 > 100 µM | U-251 > 100 µM | IGROV-1 > 100 µM | CCRF-CEM > 100 µM | LOX IMVI > 100 µM | NCI-H23 > 100 µM | NCI-H226 > 100 µM | T47D > 100 µM | MCF7 > 100 µM | BT-549 > 100 µM | HCC 2998 > 100 µM | NCI-H522 > 100 µM | HL-60 > 100 µM | MDA-MB-231 > 100 µM | NCI/ADR-RES > 100 µM
> 100 µM: HCT-15

O=c1[nH]c2cc(F)c(F)cc2nc1Cc1ccccc1
> 100 µM: HCT-15
inactive: EKVX > 100 µM | M14 > 100 µM | UACC-62 > 100 µM | SK-MEL-2 > 100 µM | UO-31 > 100 µM | SK-OV-3 > 100 µM | SF-268 > 100 µM | SK-MEL-5 > 100 µM | NCI-H460 > 100 µM | MDA-MB-435 > 100 µM | HCT-116 > 100 µM | MOLT-4 16.1 µM | ACHN > 100 µM | UACC-257 > 100 µM | SNB-19 > 100 µM | OVCAR-4 > 100 µM | SF-539 > 100 µM | PC-3 > 100 µM | SR > 100 µM | SF-295 > 100 µM | DU-145 > 100 µM | RXF 393 > 100 µM | OVCAR-8 > 100 µM | Hs-578T > 100 µM | CAKI-1 > 100 µM | HT-29 > 100 µM | SW-620 > 100 µM | A498 > 100 µM | SNB-75 > 100 µM | 786-0 > 100 µM | COLO 205 > 100 µM | HOP-92 > 100 µM | KM12 > 100 µM | HOP-62 > 100 µM | SK-MEL-28 > 100 µM | K562 30 µM | TK-10 > 100 µM | U-251 > 100 µM | IGROV-1 > 100 µM | CCRF-CEM > 100 µM | LOX IMVI > 100 µM | NCI-H23 > 100 µM | NCI-H226 > 100 µM | T47D > 100 µM | MCF7 > 100 µM | BT-549 > 100 µM | HCC 2998 > 100 µM | HL-60 > 100 µM | MDA-MB-231 > 100 µM | NCI/ADR-RES > 100 µM
